Activity calls are given as the source filed them. No cut-off for these calls is given here.
How the values were obtained:
A549 [1] = assay: Induction of cell cycle arrest in human A549 cells assessed as accumulation at G0/G1 phase at 20 uM incubated for 48 hrs by PI staining based flow cytometric analysis (reference value: 51.73%); format: functional
A549 [2] = assay: Induction of cell cycle arrest in human A549 cells assessed as accumulation at S phase at 20 uM incubated for 48 hrs by PI staining based flow cytometric analysis (reference value: 33.67%); format: functional
A549 [3] = assay: Induction of apoptosis in human A549 cells assessed as viable cells at 20 uM incubated for 48 hrs by annexin V -FITC and PI staining based flow cytometric analysis (reference value: 94.56%); format: functional; settings: A549, 48 h, read-out: Activity
A549 [4] = assay: Induction of apoptosis in human A549 cells assessed as late apoptotic cells at 20 uM incubated for 48 hrs by annexin V -FITC and PI staining based flow cytometric analysis (reference value: 2.24%); format: functional
A549 [5] = assay: Induction of apoptosis in human A549 cells assessed as early apoptotic cells at 20 uM incubated for 48 hrs by annexin V -FITC and PI staining based flow cytometric analysis (reference value: 2.93%); format: functional
A549 [6] = assay: Induction of apoptosis in human A549 cells assessed as necrotic cells at 20 uM incubated for 48 hrs by annexin V -FITC and PI staining based flow cytometric analysis (reference value: 0.27%); format: functional
A549 [7] = assay: Induction of cell cycle arrest in human A549 cells assessed as accumulation at G2/M phase at 20 uM incubated for 48 hrs by PI staining based flow cytometric analysis (reference value: 14.36%); format: functional
A549 [8] = assay: Induction of cell cycle arrest in human A549 cells assessed as accumulation at G2/M phase at 15 uM incubated for 48 hrs by PI staining based flow cytometric analysis (reference value: 14.36%); format: functional
A549 [9] = format: functional, cell-based; settings: Homo sapiens, A549, 72 h
A549 [10] = assay: Induction of cell cycle arrest in human A549 cells assessed as accumulation at S phase at 15 uM incubated for 48 hrs by PI staining based flow cytometric analysis (reference value: 33.67%); format: functional
HCC827 = format: functional, cell-based; settings: Homo sapiens, HCC827, 72 h
A549 [11] = assay: Induction of cell cycle arrest in human A549 cells assessed as accumulation at G0/G1 phase at 15 uM incubated for 48 hrs by PI staining based flow cytometric analysis (reference value: 51.73%); format: functional
A549 [12] = assay: Inhibition of cell migration in CM-dil-labelled human A549 cells xenografted in 48 hrs post-fertilization zebrafish embryos at 15 uM incubated for 48 hrs by confocal microscopic method; format: functional, cell-based
[13] = target: Epidermal growth factor receptor (Homo sapiens) (UniProt P00533); settings: HEK293, at 50 nM
Epidermal growth factor receptor (Homo sapiens), sequence (P00533 whole entry): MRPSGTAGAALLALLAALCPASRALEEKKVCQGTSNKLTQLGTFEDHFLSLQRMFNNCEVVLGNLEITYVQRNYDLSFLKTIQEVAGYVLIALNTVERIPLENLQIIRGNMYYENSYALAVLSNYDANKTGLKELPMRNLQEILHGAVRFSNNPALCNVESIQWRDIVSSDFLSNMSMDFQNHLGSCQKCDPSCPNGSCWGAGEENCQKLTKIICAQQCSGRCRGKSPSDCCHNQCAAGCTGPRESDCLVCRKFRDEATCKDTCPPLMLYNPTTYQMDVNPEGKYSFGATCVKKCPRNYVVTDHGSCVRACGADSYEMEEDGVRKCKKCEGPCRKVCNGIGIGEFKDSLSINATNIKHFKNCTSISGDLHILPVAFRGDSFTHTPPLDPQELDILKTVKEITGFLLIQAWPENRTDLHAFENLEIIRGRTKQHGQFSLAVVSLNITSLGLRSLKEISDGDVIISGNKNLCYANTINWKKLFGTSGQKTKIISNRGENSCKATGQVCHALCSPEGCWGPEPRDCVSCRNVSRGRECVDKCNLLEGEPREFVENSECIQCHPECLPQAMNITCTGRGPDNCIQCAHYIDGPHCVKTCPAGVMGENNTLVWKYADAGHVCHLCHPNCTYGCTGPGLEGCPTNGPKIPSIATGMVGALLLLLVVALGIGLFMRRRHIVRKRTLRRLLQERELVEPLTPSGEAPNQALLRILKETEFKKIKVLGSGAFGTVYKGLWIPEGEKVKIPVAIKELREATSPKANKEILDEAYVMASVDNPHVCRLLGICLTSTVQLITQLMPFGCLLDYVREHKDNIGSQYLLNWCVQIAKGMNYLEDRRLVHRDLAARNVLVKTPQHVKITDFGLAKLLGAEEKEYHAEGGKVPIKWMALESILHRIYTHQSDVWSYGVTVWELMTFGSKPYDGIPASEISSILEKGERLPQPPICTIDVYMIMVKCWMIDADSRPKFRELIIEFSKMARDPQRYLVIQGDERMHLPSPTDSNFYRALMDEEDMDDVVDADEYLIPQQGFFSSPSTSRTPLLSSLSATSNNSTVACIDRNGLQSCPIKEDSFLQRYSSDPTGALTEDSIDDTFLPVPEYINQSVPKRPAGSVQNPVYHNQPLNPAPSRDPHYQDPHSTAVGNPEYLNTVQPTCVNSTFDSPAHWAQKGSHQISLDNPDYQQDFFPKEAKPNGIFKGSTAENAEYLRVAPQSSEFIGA
Description: Inhibition of human recombinant His-tagged wild type EGFR expressed in HEK293 cells at 50 nM using poly[Glu:Tyr] (4:1) as substrate incubated for 60 mins by ELISA relative to control

A-431 = assay: cells; settings: Homo sapiens, A-431, 72 h
Description: Antiproliferative activity against human A431 cells incubated for 72 hrs by MTT assay

NCI-H1975 = format: functional, cell-based; settings: Homo sapiens, NCI-H1975, 72 h
SW480 = format: functional, cell-based; settings: Homo sapiens, SW480, 72 h
[14] = target: Epidermal growth factor receptor (Homo sapiens) (UniProt P00533); assay: Inhibition of EGF-induced EGFR phosphorylation at Y1068 in human A431 cells at 0.2 to 5 uM preincubated for 2 hrs followed by EGF treatment and measured after 10 mins by Western blot analysis; format: cell-based
[15] = Drug localization in mitochondria of human A549 cells at 5 uM incubated for 30 mins by Mitotracker red staining based confocal microscopic method; format: ADME; settings: a549, 0.5 h
[16] = Drug localization in lysosome of human A549 cells at 5 uM incubated for 30 mins by Lysotracker red staining based confocal microscopic method; format: ADME, subcellular; settings: a549, 0.5 h
[17] = target: Epidermal growth factor receptor (Homo sapiens) (UniProt P00533); assay: Inhibition of EGF-induced EGFR phosphorylation at Tyr-residue in human A431 cells at 0.2 to 5 uM preincubated for 2 hrs followed by EGF treatment and measured after 10 mins by Western blot analysis; format: cell-based
[18] = target: Epidermal growth factor receptor (Homo sapiens) (UniProt P00533); assay: Inhibition of EGF-induced EGFR phosphorylation at Y992 in human A549 cells at 0.4 to 10 uM preincubated for 2 hrs followed by EGF treatment and measured after 10 mins by Western blot analysis; format: cell-based
[19] = Drug localization in mitochondria of human A549 cells at 5 uM incubated for 30 mins by Mitotracker green staining based confocal microscopic method; format: ADME; settings: a549, 0.5 h
[20] = target: Epidermal growth factor receptor (Homo sapiens) (UniProt P00533); assay: Inhibition of EGF-induced EGFR phosphorylation at Y992 in human A431 cells at 0.2 to 5 uM preincubated for 2 hrs followed by EGF treatment and measured after 10 mins by Western blot analysis; format: cell-based
[21] = Drug uptake in human A549 cells at 5 uM incubated for 2 hrs by fluorescence microscopic method; format: ADME, cell-based; settings: a549, 2 h
[22] = Drug uptake in human A549 cells incubated for 2 hrs by FACS analysis; format: ADME, cell-based; settings: a549, 2 h
[23] = Drug uptake in human A549 cells at 5 uM incubated for 2 hrs by FACS analysis (reference value: 0%); format: ADME, cell-based; settings: a549, 2 h
[24] = Drug uptake in human A549 cells at 1 uM incubated for 2 hrs by FACS analysis (reference value: 0%); format: ADME, cell-based; settings: a549, 2 h
[25] = target: Epidermal growth factor receptor (Homo sapiens) (UniProt P00533); assay: Inhibition of EGF-induced EGFR phosphorylation at Y1068 in human A549 cells at 0.4 to 10 uM preincubated for 2 hrs followed by EGF treatment and measured after 10 mins by Western blot analysis; format: cell-based
[26] = target: Epidermal growth factor receptor (Homo sapiens) (UniProt P00533); assay: Inhibition of EGF-induced EGFR phosphorylation at Tyr-residue in human A549 cells at 0.4 to 10 uM preincubated for 2 hrs followed by EGF treatment and measured after 10 mins by Western blot analysis; format: cell-based
[27] = Drug uptake in human A549 cells at 25 uM incubated for 2 hrs by FACS analysis (reference value: 0%); format: ADME, cell-based; settings: a549, 2 h

Row | IC50 (A549 [9]) [µM] | inhibition [13] [%] | IC50 (A-431) [µM] | IC50 (NCI-H1975) [µM] | IC50 (SW480) [µM] | SMILES | further results
1 | – | – | – | – | – | COc1cc2ncnc(Nc3ccc(F)c(Cl)c3)c2cc1OCCCN1CCOCC1 [GEFITINIB] | Activity (A549 [1]): 76.94%; Activity (A549 [2]): 16.98%; viability at 20 µM (A549 [3]): 83.3%; Activity (A549 [4]): 7.86%; Activity (A549 [5]): 7.93%; Activity (A549 [6]): 0.95%; Activity (A549 [7]): 5.95%
2 | 14.9 | – | – | – | – | CS(=O)(=O)CCNCc1ccc(-c2ccc3ncnc(Nc4ccc(OCc5cccc(F)c5)c(Cl)c4)c3c2)o1 [LAPATINIB] | Activity (A549 [8]): 7.66%; Activity (A549 [10]): 22.35%; IC50 (HCC827): 0.6 µM; Activity (A549 [11]): 69.72%; inhibition (A549 [12]): Active
3 | – | > 20 | – | – | – | CCN(CC)CCN1CCN(c2cc3ncnc(Nc4ccc(OCc5cccc(F)c5)c(Cl)c4)c3cc2F)CC1 | –
4 | > 100 | – | > 100 | > 100 | > 100 | COCCN1CCN(c2cc3ncnc(Nc4ccc(OCc5cccc(F)c5)c(Cl)c4)c3cc2F)CC1 | –
5 | – | < 20 | – | – | – | C#Cc1cccc(Nc2ncnc3cc(N4CCN(CCN(CC)CC)CC4)c(F)cc23)c1 | –
6 | > 100 | – | 85.6 | > 100 | > 100 | Fc1ccc(Nc2ncnc3cc(N4CCOCC4)c(F)cc23)cc1Cl | –
7 | 19.2 | – | 12.8 | 68.1 | 19 | C#Cc1cccc(Nc2ncnc3cc(N4CCN(CCOC)CC4)c(F)cc23)c1 | –
8 | > 100 | – | 64 | > 100 | > 100 | C/C=C/c1ccc(Nc2ncnc3cc(N4CCOCC4)c(F)cc23)cc1 | –
9 | – | < 20 | – | – | – | C/C=C/c1ccc(Nc2ncnc3cc(N4CCN(CCN(CC)CC)CC4)c(F)cc23)cc1 | –
10 | > 100 | – | > 100 | > 100 | > 100 | C#Cc1cccc(Nc2ncnc3cc(N4CCOCC4)c(F)cc23)c1 | –
11 | – | < 20 | – | – | – | CCN(CC)CCN1CCN(c2cc3ncnc(Nc4ccc(F)c(Cl)c4)c3cc2F)CC1 | –
12 | 14.4 | – | 12.6 | 49.8 | 16.4 | COCCN1CCN(c2cc3ncnc(Nc4ccc(F)c(Cl)c4)c3cc2F)CC1 | –
13 | > 100 | – | 49.2 | > 100 | > 100 | C/C=C/c1ccc(Nc2ncnc3cc(N4CCN(CCOC)CC4)c(F)cc23)cc1 | –
14 | – | < 20 | – | – | – | Fc1cccc(COc2ccc(Nc3ncnc4cc(N5CCNCC5)c(F)cc34)cc2Cl)c1 | inhibition [14]: inactive; Drug uptake [15]: Active; Drug uptake [16]: Active; inhibition [17]: inactive; inhibition [18]: inactive; Drug uptake [19]: Active; inhibition [20]: inactive; Drug uptake [21]: Active; Drug uptake [22]: Dose-dependent effect; Drug uptake [23]: 99.95%; Drug uptake [24]: 74.03%; inhibition [25]: inactive; inhibition [26]: inactive; Drug uptake [27]: 100%
15 | 71.8 | – | 10.1 | 52.6 | 57.5 | Fc1cccc(COc2ccc(Nc3ncnc4cc(N5CCOCC5)c(F)cc34)cc2Cl)c1 | –

Row | SMILES | IC50 (A549 [9]) [µM] | inhibition [13] [%] | IC50 (A-431) [µM] | IC50 (NCI-H1975) [µM] | IC50 (SW480) [µM] | further results
16 | C#Cc1cccc(Nc2ncnc3cc(N4CCNCC4)c(F)cc23)c1 | – | < 20 | – | – | – | –
17 | Fc1ccc(Nc2ncnc3cc(N4CCNCC4)c(F)cc23)cc1Cl | – | < 20 | – | – | – | –
18 | C/C=C/c1ccc(Nc2ncnc3cc(N4CCNCC4)c(F)cc23)cc1 | – | < 20 | – | – | – | –
